We go through 11 compounds from US9650339B2, “Inhibitors of histone demethylases” (Gilead Sciences, Inc., priority 2013, dated 2017).

pEC50, pIC50: −log10 of the molar value.

One assay concerns the target T1, KDM2B (FBXL10) (Homo sapiens, UniProt Q8NHM5).
T1 sequence (Q8NHM5 1-650): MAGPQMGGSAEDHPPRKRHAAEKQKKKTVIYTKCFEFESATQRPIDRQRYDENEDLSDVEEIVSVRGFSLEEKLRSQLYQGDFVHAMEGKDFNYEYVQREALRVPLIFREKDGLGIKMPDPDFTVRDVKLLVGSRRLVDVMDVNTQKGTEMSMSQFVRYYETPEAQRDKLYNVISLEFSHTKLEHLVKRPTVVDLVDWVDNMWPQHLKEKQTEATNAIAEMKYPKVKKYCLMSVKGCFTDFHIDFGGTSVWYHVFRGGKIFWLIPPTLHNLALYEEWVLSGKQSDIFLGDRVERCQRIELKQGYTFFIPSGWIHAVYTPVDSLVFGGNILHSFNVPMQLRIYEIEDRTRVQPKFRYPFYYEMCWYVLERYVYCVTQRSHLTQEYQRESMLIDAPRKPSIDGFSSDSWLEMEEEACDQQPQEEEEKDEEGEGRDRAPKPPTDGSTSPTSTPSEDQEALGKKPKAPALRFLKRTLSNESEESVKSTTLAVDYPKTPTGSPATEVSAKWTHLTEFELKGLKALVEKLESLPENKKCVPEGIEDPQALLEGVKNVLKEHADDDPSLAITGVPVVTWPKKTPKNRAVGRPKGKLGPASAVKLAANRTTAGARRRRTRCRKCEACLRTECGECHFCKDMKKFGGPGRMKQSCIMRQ
In words: Histone lysine demethylase AlphaLISA assay, KDM2B. The conditions noted are these: read-out: KDM2B HDME Inhibition IC50. It is filed as biochemical. The protocol: (§1) Assays are performed analogously to the protocol described by PerkinElmer (Roy et al. PerkinElmer Technical Note: AlphaLISA #12, April 2011)
(§2) Enzymes are dissolved in enzyme buffer and incubated for 10 min before being added to 3% DMSO solutions of compounds in enzyme buffer. Incubated for another 10 minutes, before substrate solution is added and the reaction mixture is incubated at room temperature. 10 μL acceptor beads, suspended in Epigenetic Buffer (Perkin Elmer AL008) from stock, are added and the suspension is incubated in the dark at room temperature, before a suspension of streptavidin donor beads (Perkin Elmer 6760002) in Epigenetic Buffer is added. After incubation at room temperature in the dark the plates are read. […]
BH3K36M2: RKAAPATGGVK(Me2)KPHRYRPGTVK-(BIOTIN)? (Anaspec)
(§3) Substrate Solution: Substrate, 25 μM L-Asc, and 10 μM α-KG in Buffer A.
(Bead proximity is the source of the signal in Alpha formats.)

A further assay has as its target T2, KDM4C (JMJD2C) (Homo sapiens, UniProt Q9H3R0).
T2 sequence (Q9H3R0 1-349): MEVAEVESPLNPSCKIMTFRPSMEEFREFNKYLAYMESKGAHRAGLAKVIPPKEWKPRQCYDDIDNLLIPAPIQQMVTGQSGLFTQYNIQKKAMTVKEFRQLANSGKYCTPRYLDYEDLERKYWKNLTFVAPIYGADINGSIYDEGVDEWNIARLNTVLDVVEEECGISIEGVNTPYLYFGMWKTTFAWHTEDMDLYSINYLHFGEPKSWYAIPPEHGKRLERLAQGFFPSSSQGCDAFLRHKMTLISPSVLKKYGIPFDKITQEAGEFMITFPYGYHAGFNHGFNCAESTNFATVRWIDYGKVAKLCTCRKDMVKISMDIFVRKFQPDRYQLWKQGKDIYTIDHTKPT
In words: Histone lysine demethylase AlphaLISA assay, KDM4C. The conditions noted are these: read-out: KDM4C HDME Inhibition IC50. It is filed as biochemical. Here is the method: as §1
Enzymes are dissolved in enzyme buffer and incubated for 10 min before being added to 3% DMSO solutions of compounds in enzyme buffer. Incubated for another 10 minutes, before substrate solution is added and the reaction mixture is incubated at room temperature. 10 μL acceptor beads, suspended in Epigenetic Buffer (Perkin Elmer AL008) from stock, are added and the suspension is incubated in the dark at room temperature, before a suspension of streptavidin donor beads (Perkin Elmer 6760002) in Epigenetic Buffer is added. After incubation at room temperature in the dark the plates are read.
BK9M3: Biotin-ARTKQTAR(KMe3)STGGKAPRKQ-NH2 (Caslo, Denmark) […]
as §3

Another assay addresses T3, KDM5B (PLU-1) (Homo sapiens, UniProt Q9UGL1).
T3 sequence (Q9UGL1 1-809): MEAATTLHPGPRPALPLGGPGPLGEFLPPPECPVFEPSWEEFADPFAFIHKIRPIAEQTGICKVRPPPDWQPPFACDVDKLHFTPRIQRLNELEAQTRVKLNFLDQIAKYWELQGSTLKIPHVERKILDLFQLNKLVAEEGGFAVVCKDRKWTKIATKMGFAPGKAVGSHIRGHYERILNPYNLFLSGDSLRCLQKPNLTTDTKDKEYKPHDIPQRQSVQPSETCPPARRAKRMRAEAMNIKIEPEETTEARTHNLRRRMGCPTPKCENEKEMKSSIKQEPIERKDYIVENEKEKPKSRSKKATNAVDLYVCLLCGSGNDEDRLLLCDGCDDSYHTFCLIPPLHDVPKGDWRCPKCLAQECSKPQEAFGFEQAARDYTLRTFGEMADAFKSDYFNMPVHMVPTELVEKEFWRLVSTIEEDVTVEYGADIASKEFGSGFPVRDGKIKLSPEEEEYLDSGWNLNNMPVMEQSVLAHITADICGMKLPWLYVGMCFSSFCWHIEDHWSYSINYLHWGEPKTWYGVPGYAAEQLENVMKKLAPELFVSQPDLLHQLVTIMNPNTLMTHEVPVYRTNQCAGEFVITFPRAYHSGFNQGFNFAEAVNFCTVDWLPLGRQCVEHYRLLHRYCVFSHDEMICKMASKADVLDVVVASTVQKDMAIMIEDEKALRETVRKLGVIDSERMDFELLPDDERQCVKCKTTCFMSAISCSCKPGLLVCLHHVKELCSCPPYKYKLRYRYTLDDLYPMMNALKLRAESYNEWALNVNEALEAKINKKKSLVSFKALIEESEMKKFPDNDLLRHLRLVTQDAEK
In words: Histone lysine demethylase AlphaLISA assay, KDM5B. It is filed as biochemical. The conditions noted are these: read-out: KDM5B HDME Inhibition IC50. Here is the method:
as §1, §2
H3K4M3B: H-ART(Kme3)QTARKSTGGKAPRKQLA-NH-Biotin (Caslo, Denmark) […]
as §3

A further assay concerns the target KDM6A (UTX) (Homo sapiens, UniProt O15550). Description: Histone lysine demethylase AlphaLISA assay, KDM6A. The conditions noted are these: read-out: KDM6A HDME Inhibition IC50. It is filed as biochemical. Here is the method: as §1, §2
BK27M3: Biotin-ATKAAR(Kme3)SAPATGGVKKPHRY-NH2? (Caslo, Denmark) […]
as §3

A further assay deals with MCF7 cells. In words: Cell proliferation assay MCF7. It is filed as cell-based. The conditions noted are these: MCF7 human breast cancer cells; 120 hours; ATPlite 1 Step. Here is the method: MCF7 cells were seeded in multi well plates at a density optimized to give approximately 90% confluent cells at the time of harvest. Cells were incubated for 24 hours before addition of compound. Compounds were diluted in complete medium and added to the plates in duplicates. The final concentration of DMSO was maximum 0.5%. Complete medium used was DMEM with GlutaMAX containing 10% FBS and pen/strep.
120 hours after addition of compounds, the plates were harvested and analyzed by ATPlite 1 Step (Perkin Elmer, cat no 6016739) according to the manufactures recommendation.
In general terms: Cellular ATP, detected with luciferase, serves as a proxy for viable cell number.

Another assay relates to H3K4me3 mark. In words: Histone lysine demethylase immunofluorescence assay, non-transfected U2OS cells. It is filed as cell-based. The conditions noted are these: Homo sapiens, staining of the H3K4me3 mark, 20 hours incubation with compound. The protocol: U2OS cells were harvested and seeded into multi well plates into media containing compound. The media used was DMEM containing 5% FBS and pen/strep. 20 hours after incubation of cells with compounds, the cells were washed once in PBS, harvested by fixation with formaldehyde 4% aqueous solution, and washed in PBS. Subsequently, the cells were permeabilized in PBS with 0.2% Triton X-100. Blocking was performed in PBS with 0.2% Triton X-100 and 5% FBS. The cells were incubated with αH3K4me3 primary antibody (Cell Signaling, #9751S) in blocking solution over night at 4° C. After incubation with primary antibody, the cells were washed with PBS, incubated with secondary antibody (Alexa fluor 594 goat anti rabbit IgG, Invitrogen, A11012) and Hoechst, (Sigma, 33342) in blocking solution, and washed again with PBS. Finally, PBS was added and high throughput imaging and analysis were performed by an IN Cell Analyzer 1000 (GE Healthcare). The IC50 values were based on an average measure of the staining of the H3K4me3 mark in cells.

KDM6A (UTX), sequence (O15550 919-1401): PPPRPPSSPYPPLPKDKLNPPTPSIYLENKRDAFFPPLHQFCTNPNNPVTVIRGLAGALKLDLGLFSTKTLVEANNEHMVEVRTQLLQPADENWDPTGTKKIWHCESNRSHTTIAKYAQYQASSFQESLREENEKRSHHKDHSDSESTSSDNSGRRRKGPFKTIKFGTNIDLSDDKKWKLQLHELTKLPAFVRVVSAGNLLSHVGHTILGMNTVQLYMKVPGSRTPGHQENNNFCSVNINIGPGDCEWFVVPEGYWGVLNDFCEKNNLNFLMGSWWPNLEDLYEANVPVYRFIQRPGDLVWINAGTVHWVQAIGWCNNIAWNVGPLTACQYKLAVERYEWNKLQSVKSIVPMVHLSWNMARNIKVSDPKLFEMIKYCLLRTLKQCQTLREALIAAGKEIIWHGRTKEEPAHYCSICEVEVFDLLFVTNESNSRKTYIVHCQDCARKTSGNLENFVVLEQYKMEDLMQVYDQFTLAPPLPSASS

The pIC50 is the IC50 on a negative log10 scale, so that one unit is a factor of ten. The term pEC50 denotes the EC50 on a negative log10 scale, so that one unit is a factor of ten. High values mean a small EC50, low ones a large EC50. For `CCN(CC)CCCCNCc1cc(/C=N/CC(CO)Cc2ccccc2)ccn1` (centres unmarked) [Compound 80, 2-{[{[2-({[4-(diethylamino)-butyl]amino}methyl)pyridin-4-yl]methylidene}-amino]methyl}-3-phenylpropan-1-ol], the pIC50 at KDM2B (FBXL10) was 5.60 to 6.60; on KDM4C (JMJD2C), above 6.60; at KDM5B (PLU-1) it was above 6.60; at KDM6A (UTX) it was below 5.60. The compound also had a pEC50 in the assay with MCF7 cells of 5.60 to 6.60.

For `CCN(CCN(C)C)C(=O)CNCc1cc(CNC(=O)C(F)(F)C(F)(F)C(F)(F)F)ccn1` [Compound 31, N-[(2-{[({[2-(dimethylamino)ethyl] (ethyl)carbamoyl}-methyl)amino]methyl}-pyridin-4-yl)-methyl]-2,2,3,3,4,4,4-heptafluorobutanamide], the negative logarithm of the IC50 (pIC50) is below 5.60 at KDM2B (FBXL10), below 5.60 at KDM4C (JMJD2C), 5.60 to 6.60 at KDM5B (PLU-1) and below 5.60 at KDM6A (UTX). The compound further had a pEC50 in the assay on MCF7 cells of 5.60 to 6.60.

With `CCN(CCN(C)C)C(=O)CNCc1cc(/C=N/CC(CO)Cc2ccccc2)ccn1` (centres unmarked) [Compound 89, 2-[({4-[[(2-benzyl-3-hydroxypropyl)imino]methyl]pyridin-2-yl}methyl)amino]-N-[2-(dimethylamino)ethyl]-N-ethylacetamide], the negative logarithm of the IC50 (pIC50) at KDM2B (FBXL10) is below 5.60; on KDM4C (JMJD2C), 5.60 to 6.60; on KDM5B (PLU-1) it was above 6.60; on KDM6A (UTX), below 5.60. In the assay with MCF7 cells, the negative logarithm of the EC50 (pEC50) was above 6.60.

Consider `CCN(CC(C)N(C)C)C(=O)CNCc1cc(/C=N/CCO)ccn1` (centres unmarked) [Compound 83, N-[2-(dimethylamino)-propyl]-N-ethyl-2-[({4-[[(2-hydroxyethyl)imino]-methyl]pyridin-2-yl}methyl)amino]-acetamide], for which the pIC50 on KDM2B (FBXL10) is below 5.60; on KDM4C (JMJD2C), 5.60 to 6.60; on KDM5B (PLU-1), above 6.60; in the assay with H3K4me3 mark, above 6.60. In addition, the pEC50 in the assay on MCF7 cells is above 6.60.

In the case of `CCN(CC)CCN(CC)C(=O)CNCc1cc(C=O)ccn1` [Compound 116, N-[2-(diethylamino)-ethyl]-N-ethyl-2-{[(4-formylpyridin-2-yl)methyl]amino}-acetamide], the pIC50 on KDM4C (JMJD2C) is above 6.60; on KDM5B (PLU-1), above 6.60; at KDM6A (UTX), below 5.60; in the assay with H3K4me3 mark, above 6.60. In addition, in the assay with MCF7 cells, the pEC50 was above 6.60.

For the compound `CCN(CC)CCCCNCc1cc(C2NCC3(CCCC3)CO2)ccn1` (centres unmarked) [Compound 72, [4-(diethylamino)-butyl][(4-{7-oxa-9-azaspiro[4.5]decan-8-yl}pyridin-2-yl)methyl]amine], the pIC50 on KDM2B (FBXL10) is below 5.60; at KDM4C (JMJD2C), below 5.60; at KDM5B (PLU-1) it was 5.60 to 6.60; on KDM6A (UTX), below 5.60. The pEC50 in the assay on MCF7 cells is above 6.60.

On to `CCN(CC)CCCCNCc1cc(C=NNc2ccc(C#N)cc2)ccn1` [Compound 70, 4-[2-{[2-({[4-(diethylamino)-butyl]amino}methyl)pyridin-4-yl]methylidene}-hydrazin-1-yl]benzonitrile], for which the pIC50 on KDM4C (JMJD2C) is below 5.60; on KDM5B (PLU-1), 5.60 to 6.60; at KDM6A (UTX), below 5.60; in the assay on H3K4me3 mark it was 5.60 to 6.60. This compound also gave a negative logarithm of the EC50 (pEC50) in the assay with MCF7 cells of 5.60 to 6.60.

In the case of `CCN(CC)CCCCNCc1cc(CNC(=O)C(=O)OC(C)(C)C)ccn1` [Compound 28, tert-butyl ({[2-({[4-(diethylamino)-butyl]amino}methyl)pyridin-4-yl]methyl}carbamoyl)-formate], the pIC50 at KDM4C (JMJD2C) was below 5.60; at KDM5B (PLU-1), 5.60 to 6.60; on KDM6A (UTX), below 5.60; with H3K4me3 mark, 5.60 to 6.60. For the same compound, the negative-log EC50 (pEC50) in the assay with MCF7 cells was 5.60 to 6.60.

As to `CCN(CC)CCCCNCc1cc(C=NCC(C)O)ccn1` (centres unmarked) [Compound 74, 1-[{[2-({[4-(diethylamino)-butyl]amino}-methyl)pyridin-4-yl]methylidene}-amino]propan-2-ol], the pIC50 is below 5.60 at KDM4C (JMJD2C), above 6.60 on KDM5B (PLU-1) and above 6.60 in the assay on H3K4me3 mark. Also, the negative logarithm of the EC50 (pEC50) with MCF7 cells is above 6.60.

In the case of `CCN(CC)CCCCNCc1cc(/C=N/CC(O)Cc2ccccc2)ccn1` (centres unmarked) [Compound 84, 1-[{[2-({[4-(diethylamino)-butyl]amino}methyl)pyridin-4-yl]methylidene}amino]-3-phenylpropan-2-ol], the pIC50 on KDM2B (FBXL10) was below 5.60; at KDM4C (JMJD2C), below 5.60; at KDM5B (PLU-1), 5.60 to 6.60; on KDM6A (UTX) it was below 5.60. Further, the pEC50 in the assay on MCF7 cells was above 6.60.

Regarding `CCN(CC1CCCN1C)C(=O)CNCc1cc(C=O)ccn1` (centres unmarked) [Compound 119, N-ethyl-2-{[(4-formylpyridin-2-yl)methyl]amino}-N-[(1-methylpyrrolidin-2-yl)methyl]acetamide], the negative logarithm of the IC50 (pIC50) at KDM4C (JMJD2C) is below 5.60; on KDM5B (PLU-1), above 6.60; with H3K4me3 mark it was above 6.60. The pEC50 in the assay on MCF7 cells was above 6.60.
